# Results taken from patent publication US7135293B2, “Method of detecting a nucleic acid using a fluorescent group-containing carbodiimide as a label” (Nisshinbo Industries, Inc., priority 1999, dated 2006).
# Test: Water solubility test
structure (smiles),measurement,value
CC1(C)C(/C=C/C2=C(Oc3ccccc3)C(=C/C=C3/N(CCCCS(=O)(=O)O)c4ccccc4C3(C)C)/CCC2)=[N+](CCCNC(=S)NCCC[N+](C)(C)CCCCCCN=C=NCCC[N+]2(C)CCOCC2)c2ccc3ccccc3c21.I [Compound (2)],Solubility in water,55 mg/mL
